The test system of one data set is ovarian cancer cells. The data set is described as follows: BrdU proliferation assay (FIG. 7A, 7C, 7E). Format: cell-based, human. Conditions: for rhSTIP1-increased BrdU incorporation: with inhibitor, antibody or siRNA. The protocol:
(§1) The BrdU assay and Ki67 staining procedures have been reported previously (Tsai et al 2012, Wang et al 2010). For BrdU assays, cancer cells were seeded at a density of 10^4 cells/well in a 96-well plate overnight, and cultured in serum-free medium for 24 h. Cancer cells were treated with 0.4 μM of rhSTIP1 in the presence of BrdU for 24 h. DNA synthesis activity was measured using BrdU ELISA kit (Roche Applied Science). For immunocytochemistry studies of Ki-67, MDAH2774 cells were cultured on Lab-Tek II chamber slides (Nalge Nunc International, Denmark) overnight. After serum starvation or RNAi transfection for 72 h, cancer cells were treated with 0.4 μM of STIP1 with or without an STIP1 antibody for another 24 h. The slides were fixed with 99.9% of ethanol, rehydrated with PBS, treated with 3% of hydrogen peroxide for 20 min, permeabilized with 0.1% Triton X-100 (Sigma) for 15 min, and stained with anti-Ki67 antibody (Thermo Fisher Scientific, Rockford, Ill.).
(§2) BrdU is an analogue of thymidine which can replace thymidine during DNA replication, and Ki67 is a nuclear protein that is associated with cell proliferation. BrdU incorporation assay and immunocytochemistry for endogenous Ki67 were used as an index for cell proliferation. Treatment with rhSTIP1 increased the BrdU incorporation rate and Ki67 staining of ovarian cancer cells (FIG. 7A to FIG. 7F). These activities were reduced by treatment with an ALK2/ALK3 inhibitor (LDN193189) and an ERK inhibitor (PD98059) (FIGS. 7A and 7B), an STIP1 antibody (FIGS. 7C and 7D), and ALK2 siRNA and STIP1 siRNA (FIGS. 7E and 7F).
Background: Uptake of a labelled nucleoside into DNA is a usual measure of proliferation.

A further data set deals with SMAD1/5 phosphorylation. Nature of the data set: SMAD1/5 phosphorylation western blot / antibody neutralization assay (FIG. 6A, 6B). The data set is classed as cell-based, human. Conditions: ES2, SKOV3, TOV21G, TOV112D, BR, BG1, RL95-2, CL1-0, NPC-BM1 cell lines. On the procedure: Cell lysates were prepared with a RIPA buffer (150 mM NaCl, 20 mM Tris-Cl pH7.5, 1% Triton X-100, 1% NP40, 0.1% SDS, 0.5% deoxycholate) containing freshly added proteinase and phosphatase inhibitors (Bionovas, Toronto). Protein concentration was measured using the Bradford method. Fifty μg of each sample was electrophoresed in 10% SDS-polyacrylamide gels, and transferred to nitrocellulose membranes. STIP1 antibody was commercially available from Abnova Biotechnology and Santa Cruz Biotechnology, Santa Cruz, Calif., actin was commercially available from Sigma, the corresponding horseradish peroxidase-conjugated antibody was commercially available from Santa Cruz Biotechnology, enhanced chemiluminescence reagent was commercially available from Millipore Inc. (Millipore, Billerica, Mass.). The signal intensity of autoradiogram was quantified using the UN-SCAN-IT software (Silk Scientific, Orem, Utah), and relative intensity of each sample was normalized by the corresponding actin intensity. For antibody neutralization assay, cancer cells were cultured in serum-free medium for 24 h, and treated with rhSTIP1 for another 24 h in the presence or absence of the STIP1 monoclonal antibody, which were pre-incubated at 37° C. for 1 h. Endogenous phospho-SMAD1/5 was detected with western blot analysis. […]
A general note: Immunoblotting shows a protein as a band on a membrane.

For another data set, the system named is MDAH2774 cells. The data set is described as follows: Ki67 immunocytochemistry (FIG. 7B, 7D, 7F). The conditions noted are these: for rhSTIP1-increased Ki67 staining: with inhibitor, antibody or siRNA. The data set is classed as cell-based, human. On the procedure: as §1, §2
Data set [1] has as its system MDAH2774, ARK2, NPC-BM1, SAS, Colon 205, CL 1-0, BxPC3, HepG2 and MCF7 cells. Nature of the data set: MTT assay with cell permeable peptide, cancer cell line panel (FIG. 13B). The data set is classed as cell-based. The conditions noted are these: all of the tested cancer cells. On the procedure:
(§3) Cell permeable STIP1 polypeptide 520-543 was added to the following cancer cell lines: MDAH2774 (ovarian cancer); ARK2 (endometrial cancer); NPC-BM1 (nasopharyngeal cancer); SAS (oral cancer); Colon 205 (colon cancer); CL 1-0 (lung cancer); BxPC3 (pancreatic cancer); HepG2 (liver cancer) and MCF7 (breast cancer) cells. Cancer cell viability was assessed using the MTT assay and cell death was assessed using LDH assay.
For orientation: Tetrazolium dyes change colour on reduction, which living cells bring about.

The test system is the same in data set [2]. The data set is described as follows: LDH assay with cell permeable peptide, cancer cell line panel (FIG. 13A). Conditions: all of the tested cancer cells. The data set is classed as cell-based. The protocol: as §3
For data set [3], the system named is ovarian cancer cells (MDAH2774). The data set is described as follows: MTT cell viability of transfected MDAH2774 cells. The data set is classed as cell-based, human. Conditions: for Normalized O.D / Original O.D / cancer cell viability (in words, FIG. 10B and Table 2): MTT, MDAH2774; for Normalized O.D / Original O.D: peptide 200 uM; for cancer cell viability (in words, FIG. 10B and Table 2): transfected peptides. The source says:
Human ovarian cancer cell lines TOV112D, TOV21G, SKOV3, MDAH2774, ES2, MDAH2774, BG1; human endometrial cancer cell line RL95-2, human pancreatic cancer cell line BxPC3, breast cancer cell line (MCF7) and colon cancer cell line (HT29) were obtained from ATCC (Rockville, Md., USA). Lung cancer cell line CL1-0 and nasopharyngeal carcinoma cell line NPC-BM1 were obtained from Dr. C C Wu (Department of Medical Biotechnology and Laboratory Science, Chang-Gung University, Taoyuan, Taiwan), Wu et al. Mol. Cell Proteomics 9(6):11100 (20101). Mouse ovarian cancer cell line MOSEC was obtained from Dr. C L Chang (Department of Obstetrics and Gynecology, Mackay Memorial Hospital, Taipei, Taiwan), Chang et al. Cancer Research 67:10047 (2007). TOV112D, TOV21G, SKOV3, MDAH2774, ES2 and RL95-2 were cultured in Dulbecco's modified Eagle's medium/F-12 supplemented with 10% fetal bovine serum and antibiotics at 37° C. in 5% CO2 humidified atmosphere. BxPC3, CL1-0, NPC-BM1 and MOSEC cells were cultured in RPMI 1640 media supplemented with 10% fetal bovine serum.
Cancer cells were transfected with an STIP1 antibody in PLUSin reagent (Polyplus-transfection Inc., NY, USA) according to manufacturer's protocol. In summary, 2×10^3˜6×10^3 cancer cells were seeded in a 96-well plate overnight, followed by PBS rinse and the addition of 180 μl of OPTI-MEM. 0.6 μg of mouse STIP1 antibody were diluted in 20 mM HEPES, mixed with 1.2 μl of PLUSin by vortexing, followed by incubation at room temperature for 15 min. The antibody/PLUSin mixture was added to the cancer cells by gentle swirling the plate. The STIP1 antibody and the control IgG used in the working examples described herein are commercially available from Abnova Biotechnology Inc., (Taipei City, Taiwan). The STIP1 antibody in the working examples described herein can be used to detect recombinant full length STIP1 (SEQ ID NO:3).
1˜2×10^4 Cancer cells were plated per well in 96-well plates overnight, then transfected with a mouse STIP1 antibody (commercially available from Abnova Biotechnology Inc.) for 48 h before they were assessed. The inhibitory effect of the STIP1 antibody on the cancer cells was measured by the MTT [3-(4,5-Dimethylthiazol-2-yl)-2,5-Diphenyltetrazolium Bromide]method (Sigma St. Louis, Mo.). The optical density was measured at 570 nm using an automated scanning multiwell spectrophotometer (Wallac Victor2 spectrophotometer; PerkinElmer, Boston, Mass., USA).
Given the neutralizing effect of STIP1 polypeptide 520-543 (SEQ ID NO:1) on STIP1 antibody, co-transfecting STIP1 antibody and STIP1 polypeptide 520-543 in cancer cells may reduce the suppression effect of STIP1 antibody. FIG. 10A and Table 1 show cell viability of ovarian cancer cells (MDAH2774) transfected with STIP1 antibody only (positive control) and STIP1 antibody with various concentrations of STIP1 polypeptide 520-543. Cell viability was evaluated using MTT assays. […] For example, the cell viability for STIP1 antibody was 78.81% (Table 1), the cell viability for 25 uM of STIP1 polypeptide 520-543 was 102% (Table 2), and the cell viability for STIP1 antibody and […] of STIP1 polypeptide 520-543 was 56.38% (Table 1). Similarly, the cell viability for 200 uM of STIP1 polypeptide 520-543 was 28.64% (Table 2), and the cell viability for STIP1 antibody and […] of STIP1 polypeptide 520-543 was 27.67% (Table 1).

Where a SMILES comes first, the peptide text is derived from it. Where no end group is shown, it is not given here.

Take “rhSTIP1: recombinant human STIP1 protein (a.a. sequence number 1 to 543)”: the BrdU incorporation rate entry with ovarian cancer cells (treatment with rhSTIP1 (0.4 μM, 24 h)) is listed as “increased”. In addition, in the data set on SMAD1/5 phosphorylation, the SMAD1/5 phosphorylation entry is reported as “stimulates SMAD1/5 phosphorylation”. In addition, the Ki67 staining result in the data set with MDAH2774 cells (treatment with rhSTIP1) is “increased”.
“cell permeable STIP1 polypeptide 520-543: STIP1 polypeptide 520-543 having eight D-arginine residues; detected with anti-myc antibody (EHLKNPVIAQKIQKLMDVGLIAIR; also: octa-D-arginine attached, end not given here, myc tag; UniProt P31948 520-543, looked up, fragment)”: in data set [1], the “cell proliferation (MTT activity)” value is recorded as “inhibits cell proliferation”. Besides, the “cell death (LDH activity)” value in data set [2] is “induce cell death”.
Consider VQQIMSDPAMRLILEQMQKDPQALS [Peptide 495], for which, in data set [3], the “Normalized O.D” value stood at 0.97; the “Original O.D” value turned out to be 0.14; the “cancer cell viability (in words, FIG. 10B and Table 2)” value was “did not significantly suppress cancer cell viability”. Moreover, in data set [3] (human, 48 h, 200 uM), the “Cell viability (%)” value is recorded as 96.94%.
For the compound `c1ccc2c(-c3cnn4cc(-c5ccc(N6CCNCC6)cc5)cnc34)ccnc2c1` [LDN193189], the “rhSTIP1-increased BrdU incorporation” value in the data set with ovarian cancer cells is reported as “reduced”. In addition, in the data set on MDAH2774 cells, the “rhSTIP1-increased Ki67 staining” value was “reduced”.
On to `COc1cccc(-c2cc(=O)c3ccccc3o2)c1N` [PD98059], for which, in the data set on ovarian cancer cells (inhibition of ERK activity), the “cell proliferation (BrdU incorporation, FIG. 7A)” value was “strongly inhibited cell proliferation”. The “rhSTIP1-increased BrdU incorporation” value in the data set with ovarian cancer cells is recorded as “reduced”. The “rhSTIP1-increased Ki67 staining” value in the data set with MDAH2774 cells was “reduced”.
Consider `CSCC[C@H](NC(=O)[C@H](CCSC)NC(=O)[C@H](CS)NC(=O)[C@H](CCCNC(=N)N)NC(=O)[C@H](CCC(N)=O)NC(=O)[C@H](Cc1ccc(O)cc1)NC(=O)CNC(=O)[C@H](CC(=O)O)NC(=O)[C@H](C)NC(=O)[C@H](C)NC(=O)[C@H](CCC(=O)O)NC(=O)[C@H](CCCCN)NC(=O)[C@H](CS)NC(=O)[C@H](CO)NC(=O)[C@H](CO)NC(=O)[C@@H](N)CC(=O)O)C(=O)N[C@@H](C)C(=O)N[C@@H](CCC(N)=O)C(=O)N[C@@H](Cc1ccc(O)cc1)C(=O)N[C@@H](CC(N)=O)C(=O)N[C@@H](CCCNC(=N)N)C(=O)N[C@@H](Cc1c[nH]cn1)C(=O)N[C@@H](CC(=O)O)C(=O)N[C@@H](CO)C(=O)N1CCC[C@H]1C(=O)O` [Peptide 458] (H-DSSCKEAADGYQRCMMAQYNRHDSP-OH; N-terminus and C-terminus assumed), for which, in data set [3], the “Normalized O.D” value is listed as 0.83; the “Original O.D” value was 0.13; the “cancer cell viability (in words, FIG. 10B and Table 2)” value is reported as “did not significantly suppress cancer cell viability”.
